Values quoted from earlier work in US4510132A, “Compounds for use in antibacterial therapy” (priority 1982, dated 1985).

Assays:
mice = details: Chihara et al, Kajiwara et al; cited from earlier work
[1] = Chihara et al 1973, 1974; cited from earlier work

polymyxin E nonapeptide [PMEN]
toxicity to eukaryotes (mice) compared with parent compound colistin (mice): significantly less toxic | antibacterial activity compared with colistin [1]: lack the antibacterial activity of colistin
